Reference: patent US20160257651A1, “NOVEL COMPOUND WITH ANTIBACTERIAL ACTIVITY” (priority 2013, published 2016)
Converted amounts (≈) assume the structure as drawn. Like-named read-outs stand apart in the source and are kept apart here.

Legend:
E. faecium NCTC12204 = assay: MIC against Enterococcus bacteria; assay type: cell-based; conditions: NCTC 12204 / VRE
Experimental: (§1) Antibacterial activities of the compound J-131CP against Enterococcus bacteria (Enterococcus faecium and Enterococcus faecalis) were examined by the following methods.
(§2) The compound J-131CP and quinolones were prepared in the same manner as that of Test Example 1-1.
(§3) Cell suspensions were prepared in the same manner as that of Test Example 1-1 described in the section of measurement of MIC in Test Example 1-1, except that the Enterococcus bacterium strains mentioned in Table 8 were used instead of Staphylococcus aureus, and MICs of the compound J-131CP and quinolones as control were determined for the strains in the same manner as that of Test Example 1-1 described in the section of measurement of MIC in Test Example 1-1. In Table 8, the amino acid substitution mutations in QRDR of the strains are underlined.

E. faecalis NCTC12203 = assay: MIC against Enterococcus bacteria; assay type: cell-based; conditions: NCTC 12203 / VRE
Experimental: as §1, §2, §3

E. faecium RPR10 = assay: MIC against Enterococcus bacteria; assay type: cell-based
Experimental: as §1, §2, §3

E. faecalis NCTC12201 = assay: MIC against Enterococcus bacteria; assay type: cell-based; conditions: Enterococcus faecalis, NCTC 12201 / VRE, quinolone-susceptible
Experimental: as §1, §2, §3

E. faecalis 36-15747 = assay: MIC against Enterococcus bacteria; assay type: cell-based; conditions: 3615747, ParC 80Ile
Experimental: as §1, §2, §3

[1] = system: S. aureus MR5867 one-step mutant; assay: MIC against stepwise QRDR mutants; assay type: cell-based; conditions: Staphylococcus aureus
Experimental: (§4) The strains used for this test example are available from the inventors of the present invention.
(§5) Then, the cell suspension was diluted 500 times with CAMHB mentioned above.

[2] = system: S. aureus MS5952 one-step mutant; assay: MIC against stepwise QRDR mutants; assay type: cell-based; conditions: Staphylococcus aureus
Experimental: as §4, §5

[3] = system: S. aureus MS5952 three-step mutant; assay: MIC against stepwise QRDR mutants; assay type: cell-based; conditions: Staphylococcus aureus
Text: (§6) In order to further verify that the action site of the compound J-131CP is gyrA, there were examined antibacterial activities against the MRSA, S. aureus MR5867, and stepwise-mutated strains (one-step mutant strain to three-step mutant strain) of S. aureus MR5867 in which mutation was introduced into QRDR, as well as the MSSA, S. aureus MS5952, and stepwise-mutated strains (one-step mutant strain to three-step mutant strain) of S. aureus MS5952 in which mutation was introduced into QRDR (those strains mentioned above are described in Antimicrob. Agents Chemother., 42(8), pp. 1917-1922, 1998) by the following methods. The strains used for this test example are available from the inventors of the present invention.
as §2, §5
(§7) CAMHB containing each of the compound J-131CP and quinolones at each concentration was added to each well of a 96-well plate in a volume of 50 μL/well, the aforementioned cell suspension diluted 500 times was added to the well in a volume of 50 μL/well, and stationary culture was carried out overnight at 37° C. in the same manner as that of Test Example 1-1.

[4] = system: S. aureus MR5867 three-step mutant; assay: MIC against stepwise QRDR mutants; assay type: cell-based; conditions: Staphylococcus aureus
Text: as §6, §2, §5, §7

S. aureus MR5867 = assay: MIC against stepwise QRDR mutants; assay type: cell-based; conditions: Staphylococcus aureus
Text: as §6, §2, §5, §7

S. aureus MS5952 = assay: MIC against stepwise QRDR mutants; assay type: cell-based; conditions: Staphylococcus aureus
Text: as §6, §2, §5, §7

[5] = system: S. aureus MS5952 two-step mutant; assay: MIC against stepwise QRDR mutants; assay type: cell-based; conditions: Staphylococcus aureus
Text: as §6, §2, §5, §7

[6] = system: S. aureus MR5867 two-step mutant; assay: MIC against stepwise QRDR mutants; assay type: cell-based; conditions: Staphylococcus aureus
Text: as §6, §2, §5, §7

S. aureus Mu50 = assay: microbe, parasite or virus in culture; assay type: cell-based, Staphylococcus aureus; conditions: for MIC ratio (Mu50 MIC/FDA209P MIC): MIC for S. aureus Mu50 / MIC for S. aureus FDA209P; for MIC: S. aureus Mu50, quinolone-resistant MRSA, ParC S80F, GyrA S84L
Experimental: as §5

S. pneumoniae BCLSP16 = assay: MIC against pneumococcus, CAMHB with 5 mass % LHB; assay type: cell-based; conditions: Streptococcus pneumoniae
Text: (§8) Antibacterial activity of the compound J-131CP against pneumococcus (Streptococcus pneumoniae) was examined by the following method. The S. pneumoniae strains used for this test belong to any one of the categories of penicillin-susceptible pneumococcus (penicillin-susceptible Streptococcus pneumoniae, PSSP), penicillin-intermediate pneumococcus (penicillin-intermediate Streptococcus pneumoniae, PISP), and penicillin-resistant pneumococcus (penicillin-resistant Streptococcus pneumoniae, PRSP).
(§9) The compound J-131CP and quinolones were prepared in the same manner as that of Test Example 1-1, except that CAMHB containing 5 mass % of lysed horse blood (LHB) was used for the dilution instead of CAMHB. The lysed horse blood was prepared by adding sterilized water to horse sterile defibered blood (produced by Nippon Bio-Supp. Center) at a ratio of 1:1, subjecting the mixture to freezing and thawing 5 times, then centrifuging the mixture twice at 10,000 rpm for 20 minutes, and filtering the supernatant through a filter.
(§10) The S. pneumoniae strains mentioned in Table 11 were each cultured overnight at 37° C. on a blood agar medium as stationary culture. The blood agar medium was prepared by adding 5 mass % ovine sterile defibered blood (produced by Nippon Bio-Supp. Center) to a heart infusion agar medium (produced by EIKEN CHEMICAL). Each S. pneumoniae strain cultured overnight at 37° C. as stationary culture was further subcultured overnight at 37° C. on fresh blood agar medium as stationary culture. After completion of the culture, cells of each pneumococcus strain were collected with a swab, and suspended in physiological saline, and the suspension was adjusted with physiological saline to show absorbance of 0.08 to 0.13 at 625 nm as measured with an absorbance meter (produced by Amersham), and further diluted 200 times with CAMHB containing 5 mass % LHB.
(§11) CAMHB containing the compound J-131CP at each concentration or each quinolone at each concentration, and 5 mass % LHB was added to each well of a 96-well plate in a volume of 50 μL/well, each cell suspension diluted 200 times was added to the well in a volume of 50 μL/well, and stationary culture was carried out overnight at 37° C.
(§12) After completion of the culture, whether the bacterium proliferated or not was determined on the basis of visually observed turbidity of the culture in the well, and MIC values (mg/L) of the compound J-131CP and the quinolones for the strains were determined. In Table 11, the amino acid substitution mutations in QRDR of the strains are underlined.

S. pneumoniae JHSP11 = assay: MIC against pneumococcus, CAMHB with 5 mass % LHB; assay type: cell-based; conditions: Streptococcus pneumoniae
Text: as §8, §9, §10, §11, §12

S. pneumoniae KBSP04 = assay: MIC against pneumococcus, CAMHB with 5 mass % LHB; assay type: cell-based; conditions: Streptococcus pneumoniae
Text: as §8, §9, §10, §11, §12

[7] = E. faecium NCTC12204, VRE, read-out: MIC
[8] = E. faecalis NCTC12203, VRE, read-out: MIC
[9] = E. faecium RPR10, read-out: MIC
[10] = S. pneumoniae KBSP04, PISP, read-out: MIC

Row | SMILES | MIC (E. faecium NCTC12204; [7]) [µg/mL] | MIC (E. faecalis NCTC12203; [8]) [µg/mL] | MIC (E. faecium RPR10; [9]) [µg/mL] | MIC (E. faecalis NCTC12201; read-out: MIC) [µg/mL] | MIC (E. faecalis 36-15747) [µg/mL] | MIC [1] [µg/mL] | MIC [2] [µg/mL] | MIC [3] [µg/mL] | MIC [4] [µg/mL] | MIC (S. aureus MR5867) [µg/mL] | MIC (S. aureus MS5952) [µg/mL] | MIC [5] [µg/mL] | MIC [6] [µg/mL] | MIC ratio (Mu50 MIC/FDA209P MIC) (S. aureus Mu50) | MIC (S. aureus Mu50) [µg/mL] | MIC (S. aureus Mu50; Staphylococcus aureus, MRSA) [µg/mL] | MIC (S. pneumoniae BCLSP16; BCLSP16) [µg/mL] | MIC (S. pneumoniae JHSP11) [µg/mL] | MIC (S. pneumoniae KBSP04; KBSP04) [µg/mL] | MIC (S. pneumoniae KBSP04; [10]) [µg/mL] | further results
1 | C[C@@H]1CN(c2c(F)c(N)c3c(=O)c(C(=O)O)cn(C4CC4)c3c2F)C[C@H](C)N1 [SPX, sparfloxacin] | 1 (≈ 2.55 µM) | 1 (≈ 2.55 µM) | 0.13 (≈ 0.331 µM) | 0.5 (≈ 1.27 µM) | 0.5 (≈ 1.27 µM) | < 0.06 | 8 (≈ 20.4 µM) | 128 (≈ 326 µM) | 16 (≈ 40.8 µM) | < 0.06 | < 0.06 | 16 (≈ 40.8 µM) | 8 (≈ 20.4 µM) | ≧256 | 16 (≈ 40.8 µM) | 8 to 128 (≈ 20.4 to 326 µM) | 16 (≈ 40.8 µM) | > 32 | 0.125 (≈ 0.319 µM) | – | –
2 | CCn1cc(C(=O)O)c(=O)c2cc(F)c(N3CCNCC3)cc21 [NOR, norfloxacin] | 4 (≈ 12.5 µM) | 4 (≈ 12.5 µM) | 2 (≈ 6.26 µM) | 2 (≈ 6.26 µM) | 16 (≈ 50.1 µM) | 16 (≈ 50.1 µM) | 16 (≈ 50.1 µM) | 128 (≈ 401 µM) | > 128 | 1 (≈ 3.13 µM) | 1 (≈ 3.13 µM) | 16 (≈ 50.1 µM) | 64 (≈ 200 µM) | 512 | – | – | > 128 | 128 (≈ 401 µM) | – | 4 (≈ 12.5 µM) | –
3 | O=C(O)c1cn(C2CC2)c2cc(N3CCNCC3)c(F)cc2c1=O [CIP, ciprofloxacin] | 4 (≈ 12.1 µM) | 4 (≈ 12.1 µM) | – | – | 2 (≈ 6.04 µM) | – | – | 64 (≈ 193 µM) | 128 (≈ 386 µM) | 0.25 (≈ 0.754 µM) | 0.25 (≈ 0.754 µM) | 8 (≈ 24.1 µM) | 32 (≈ 96.6 µM) | – | – | – | – | > 32 | – | 0.5 (≈ 1.51 µM) | MIC (S. pneumoniae BCLSP16; S. pneumoniae BCLSP16, PSSP, ParC 79Tyr, GyrA 81Phe, read-out: MIC): > 32 µg/mL
4 | NC1CCN(c2nc3c(cc2F)c(=O)c(C(=O)O)cn3-c2ccc(F)cc2F)C1 (stereo not shown) [TSX, tosufloxacin] | 4 (≈ 9.89 µM) | 4 (≈ 9.89 µM) | 4 (≈ 9.89 µM) | 0.25 (≈ 0.618 µM) | 2 (≈ 4.95 µM) | 0.25 (≈ 0.618 µM) | 2 (≈ 4.95 µM) | > 128 | > 128 | < 0.06 | 0.25 (≈ 0.618 µM) | 8 (≈ 19.8 µM) | 8 (≈ 19.8 µM) | ≧2048 | – | – | 8 (≈ 19.8 µM) | 8 (≈ 19.8 µM) | 0.125 (≈ 0.309 µM) | – | –
5 | CC1COc2c(N3CCN(C)CC3)c(F)cc3c(=O)c(C(=O)O)cn1c23 (stereo not shown) [OFX, ofloxacin] | 4 (≈ 11.1 µM) | 4 (≈ 11.1 µM) | 2 (≈ 5.53 µM) | 2 (≈ 5.53 µM) | 4 (≈ 11.1 µM) | 1 (≈ 2.77 µM) | 1 (≈ 2.77 µM) | 64 (≈ 177 µM) | 64 (≈ 177 µM) | 0.25 (≈ 0.692 µM) | 0.25 (≈ 0.692 µM) | 8 (≈ 22.1 µM) | 16 (≈ 44.3 µM) | 128 | 16 (≈ 44.3 µM) | 8 to 128 (≈ 22.1 to 354 µM) | 16 (≈ 44.3 µM) | 8 (≈ 22.1 µM) | – | 0.5 (≈ 1.38 µM) | –
6 | C[C@H]1COc2c(N3CCN(C)CC3)c(F)cc3c(=O)c(C(=O)O)cn1c23 [LVX, levofloxacin] | 2 (≈ 5.53 µM) | 2 (≈ 5.53 µM) | 1 (≈ 2.77 µM) | 1 (≈ 2.77 µM) | 2 (≈ 5.53 µM) | 1 (≈ 2.77 µM) | 0.5 (≈ 1.38 µM) | 32 (≈ 88.6 µM) | 16 (≈ 44.3 µM) | 0.125 (≈ 0.346 µM) | 0.25 (≈ 0.692 µM) | 4 (≈ 11.1 µM) | 8 (≈ 22.1 µM) | ≧128 | 8 (≈ 22.1 µM) | 8 to 128 (≈ 22.1 to 354 µM) | 32 (≈ 88.6 µM) | 64 (≈ 177 µM) | – | 2 (≈ 5.53 µM) | –
7 | O=c1cc(CO)c2cc(F)c(-c3ccc(O)cc3)cc2n1C1CC1 [J-131CP, 1-cyclopropyl-6-fluoro-4-(hydroxymethyl)-7-(4-hydroxyphenyl)-1,2-dihydroquinolin-2-one] | – | – | – | – | 0.5 (≈ 1.54 µM) | 0.25 (≈ 0.768 µM) | 0.25 (≈ 0.768 µM) | 0.125 (≈ 0.384 µM) | ≤ 0.06 | 0.25 (≈ 0.768 µM) | 0.25 (≈ 0.768 µM) | 0.125 (≈ 0.384 µM) | > 0.06 | ≦0.25 | – | ≤ 0.06 | 4 (≈ 12.3 µM) | 4 (≈ 12.3 µM) | 4 (≈ 12.3 µM) | – | MIC (E. faecium NCTC12204): 8 µg/mL (≈ 24.6 µM); MIC (E. faecalis NCTC12203): 2 µg/mL (≈ 6.15 µM); MIC (E. faecium RPR10; RPR10): 4 µg/mL (≈ 12.3 µM); MIC (E. faecalis NCTC12201): 0.5 µg/mL (≈ 1.54 µM)
